Assay results taken from patent US20160287589A1, “SUBSTITUTED-IMIDAZOPYRIDAZINES” (BAYER PHARMA AKTIENGESELLSCHAFT, priority 2013, published 2016).

Legend:
MKNK1 [1] = biological target: T1, MKNK1 (Homo sapiens, UniProt Q9BUB5, T385D); experiment: MKNK1 kinase high ATP assay (TR-FRET-based); type: biochemical; conditions: Table 2b; 2 mM ATP, 15 min preincubation
T1 construct: GST (N); purchased Carna Biosciences 02-145; host or cells: insect cells (baculovirus expression system)
Procedure, shortened: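 TR-FRET read-out (anti-phospho-S6 Ser236 antibody, Eu/XL665) of biotin-peptide phosphorylation (0.06 μM) at high ATP (2 mM final). Enzyme was GST-MKNK1 full length, T344D, pre-bound to compound for 15 min before a 30 min reaction at 22 °C, pH 7.5. Inhibition scaled between no-inhibitor (0%) and no-enzyme (100%) wells.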

MKNK1 [2] = biological target: T1, MKNK1; experiment: MKNK1 kinase assay (MKNK1 TR-FRET assay); type: biochemical; conditions: Table 1b; 10 μM ATP, 15 min preincubation

T1 sequence (Q9BUB5 1-424 isoform Q9BUB5-2 T344D): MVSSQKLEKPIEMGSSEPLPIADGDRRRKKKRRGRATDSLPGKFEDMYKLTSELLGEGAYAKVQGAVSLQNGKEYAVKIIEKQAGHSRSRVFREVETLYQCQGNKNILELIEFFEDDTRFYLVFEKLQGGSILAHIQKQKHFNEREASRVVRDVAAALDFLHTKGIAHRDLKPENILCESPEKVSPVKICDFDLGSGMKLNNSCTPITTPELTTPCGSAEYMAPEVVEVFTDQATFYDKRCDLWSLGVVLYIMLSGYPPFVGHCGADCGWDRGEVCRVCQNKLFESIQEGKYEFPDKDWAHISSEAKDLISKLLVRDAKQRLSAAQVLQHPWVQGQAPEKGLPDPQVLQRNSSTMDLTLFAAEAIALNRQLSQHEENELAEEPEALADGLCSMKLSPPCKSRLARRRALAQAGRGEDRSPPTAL

Row | IC50 (MKNK1 [1]) | IC50 (MKNK1 [2]) | Structure (SMILES)
1 | 0.4 nM | 0.4 nM | O=C1CC[C@H](COc2ccc3ncc(-c4cc5c(N6CCNCC6)cccc5o4)n3n2)N1 [II-19, (5R)-5-[({3-[4-(Piperazin-1-yl)-1-benzofuran-2-yl]imidazo[1,2-b]pyridazin-6-yl}-oxy)methyl]pyrrolidin-2-one]
2 | 0.8 nM | 0.5 nM | CS(=O)(=O)CCCOc1ccc2ncc(-c3cc4c(N5CCNCC5)cccc4o3)n2n1 [II-20, 6-[3-(Methylsulfonyl)propoxy]-3-[4-(piperazin-1-yl)-1-benzofuran-2-yl]imidazo-[1,2-b]pyridazine]
3 | 1.9 nM | 2 nM | CCN(CCOC)c1cccc2oc(-c3cnc4ccc(OCCCS(C)(=O)=O)nn34)cc12 [II-23, N-Ethyl-N-(2-methoxyethyl)-2-{6-[3-(methylsulfonyl)propoxy]imidazo[1,2-b]-pyridazin-3-yl}-1-benzofuran-4-amine]
4 | 5.7 nM | 2.2 nM | C[C@H]1CN(c2cccc3oc(-c4cnc5ccc(OC[C@H]6CCC(=O)N6)nn45)cc23)CCO1 [II-27, (5R)-5-{[(3-{4-[(2S)-2-methylmorpholin-4-yl]-1-benzofuran-2-yl}imidazo[1,2-b]pyridazin-6-yl)oxy]methyl}pyrrolidin-2-one]
5 | 2.7 nM | 5.4 nM | C[C@H]1CNCCN1c1cccc2oc(-c3cnc4ccc(OCC(F)(F)F)nn34)cc12 [II-29, 3-{4-[(2S)-2-methylpiperazin-1-yl]-1-benzofuran-2-yl}-6-(2,2,2-trifluoroethoxy)im-idazo[1,2-b]pyridazine]
6 | 49.6 nM | 16.7 nM | C[C@@H](N)COc1ccc2ncc(-c3cc4c(N5CCOC(C)(C)C5)cccc4o3)n2n1 [II-35, (2R)-1-({3-[4-(2,2-dimethylmorpholin-4-yl)-1-benzofuran-2-yl]imidazo[1,2-b]pyridazin-6-yl}oxy)propan-2-amine]
7 | 69.1 nM | 43.9 nM | C[C@@H]1COCCN1c1cccc2oc(-c3cnc4ccc(OC[C@@H](C)N)nn34)cc12 [II-37, (2R)-1-[(3-{4-[(3R)-3-methylmorpholin-4-yl]-1-benzofuran-2-yl}imidazo[1,2-b]pyridazin-6-yl)oxy]propan-2-amine]
8 | 1.4 nM | 4.6 nM | C[C@H]1CNCCN1c1cccc2oc(-c3cnc4ccc(OC[C@@H]5CCC(=O)N5)nn34)cc12 [II-38, (5S)-5-{[(3-{4-[(2S)-2-methylpiperazin-1-yl]-1-benzofuran-2-yl}imidazo[1,2-b]pyridazin-6-yl)oxy]methyl}pyrrolidin-2-one]
9 | 37.5 nM | 21.7 nM | C[C@H]1CN(c2cccc3oc(-c4cnc5ccc(O[C@H]6C[C@H](N)C6)nn45)cc23)CCO1 [II-43, trans-3-[(3-{4-[(2S)-2-methylmorpholin-4-yl]-1-benzofuran-2-yl}imidazo[1,2-b]pyridazin-6-yl)oxy]cyclobutanamine]
10 | 0.2 nM | 1.4 nM | CC1(C)CN(c2cccc3oc(-c4cnc5ccc(OC[C@H]6CCC(=O)N6)nn45)cc23)CCN1 [II-46, (5R)-5-[({3-[4-(3,3-dimethylpiperazin-1-yl)-1-benzofuran-2-yl]imidazo[1,2-b]pyridazin-6-yl}oxy)methyl]pyrrolidin-2-one]
11 | 0.8 nM | 4.8 nM | COC[C@H]1CCCN1c1cccc2oc(-c3cnc4ccc(OC[C@@H]5CNCC(=O)N5)nn34)cc12 [II-47, (6S)-6-{[(3-{4-[(2R)-2-(methoxymethyl)pyrrolidin-1-yl]-1-benzofuran-2-yl}imidazo[1,2-b]pyridazin-6-yl)oxy]methyl}piperazin-2-one]

The next lines start with the compound.

Row | Structure (SMILES) | IC50 (MKNK1 [1]) | IC50 (MKNK1 [2])
12 | N[C@H]1C[C@H](Oc2ccc3ncc(-c4cc5c(N6CCN(c7ccccc7)CC6)cccc5o4)n3n2)C1 [II-16, trans-3-({3-[4-(4-Phenylpiperazin-1-yl)-1-benzofuran-2-yl]imidazo[1,2-b]-pyridazin-6-yl}oxy)cyclobutanamine] | 15 nM | 13 nM
13 | CCN(CCOC)c1cccc2oc(-c3cnc4ccc(OC[C@H]5CCC(=O)N5)nn34)cc12 [II-17, (5R)-5-{[(3-{4-[Ethyl(2-methoxyethyl)amino]-1-benzofuran-2-yl}imidazo[1,2-b]-pyridazin-6-yl)oxy]methyl}pyrrolidin-2-one] | 0.5 nM | 0.6 nM
14 | CN1CCN(c2cccc3oc(-c4cnc5ccc(OC[C@H]6CCC(=O)N6)nn45)cc23)CC1 [II-18, (5R)-5-[({3-[4-(4-Methylpiperazin-1-yl)-1-benzofuran-2-yl]imidazo[1,2-b]-pyridazin-6-yl}oxy)methyl]pyrrolidin-2-one] | 0.4 nM | 0.4 nM
15 | COc1ccc2ncc(-c3cc4c(N5CCNCC5)cccc4o3)n2n1 [II-21, 6-Methoxy-3-[4-(piperazin-1-yl)-1-benzofuran-2-yl]imidazo[1,2-b]pyridazine] | 0.3 nM | 0.3 nM
16 | COc1ccc2ncc(-c3cc4c(N5CCN(c6ccccc6)CC5)cccc4o3)n2n1 [II-22, 6-Methoxy-3-[4-(4-phenylpiperazin-1-yl)-1-benzofuran-2-yl]imidazo[1,2-b]-pyridazine] | 422 nM | 371 nM
17 | CCN(CCOC)c1cccc2oc(-c3cnc4ccc(OC[C@H](C)N)nn34)cc12 [II-24, 2-(6-{[(2S)-2-Aminopropyl]oxy}imidazo[1,2-b]pyridazin-3-yl)-N-ethyl-N-(2-methoxyethyl)-1-benzofuran-4-amine] | 3.2 nM | 3.3 nM
18 | COC[C@H]1CCCN1c1cccc2oc(-c3cnc4ccc(OC[C@@H](C)N)nn34)cc12 [II-26, (2R)-1-[(3-{4-[(2R)-2-(Methoxymethyl)pyrrolidin-1-yl]-1-benzofuran-2-yl}imidazo[1,2-b]pyridazin-6-yl)oxy]propan-2-amine] | 0.8 nM | 0.8 nM
19 | COc1ccc2ncc(-c3cc4c(N5CCNC[C@@H]5C)cccc4o3)n2n1 [II-28, 6-methoxy-3-{4-[(2S)-2-methylpiperazin-1-yl]-1-benzofuran-2-yl}imidazo[1,2-b]pyridazine] | 0.7 nM | 5.1 nM
20 | C[C@H]1CNCCN1c1cccc2oc(-c3cnc4ccc(OC[C@H]5CCC(=O)N5)nn34)cc12 [II-30, (5R)-5-{[(3-{4-[(2S)-2-methylpiperazin-1-yl]-1-benzofuran-2-yl}imidazo[1,2-b]pyridazin-6-yl)oxy]methyl}pyrrolidin-2-one] | 0.6 nM | 2.3 nM
21 | C[C@H](N)COc1ccc2ncc(-c3cc4c(N5CCOC[C@@H]5C)cccc4o3)n2n1 [II-31, (2S)-1-[(3-{4-[(3S)-3-methylmorpholin-4-yl]-1-benzofuran-2-yl}imidazo[1,2-b]pyridazin-6-yl)oxy]propan-2-amine] | 35.5 nM | 24.2 nM
22 | C[C@H]1COCCN1c1cccc2oc(-c3cnc4ccc(OC[C@H]5CCC(=O)N5)nn34)cc12 [II-32, (5R)-5-{[(3-{4-[(3S)-3-methylmorpholin-4-yl]-1-benzofuran-2-yl}imidazo[1,2-b]pyridazin-6-yl)oxy]methyl}pyrrolidin-2-one] | 8.1 nM | 4.4 nM
23 | C[C@H]1COCCN1c1cccc2oc(-c3cnc4ccc(OC[C@@H]5CCC(=O)N5)nn34)cc12 [II-33, (5S)-5-{[(3-{4-[(3S)-3-methylmorpholin-4-yl]-1-benzofuran-2-yl}imidazo[1,2-b]pyridazin-6-yl)oxy]methyl}pyrrolidin-2-one] | 24.4 nM | 16.3 nM
24 | C[C@H]1COCCN1c1cccc2oc(-c3cnc4ccc(O[C@H]5C[C@H](N)C5)nn34)cc12 [II-34, trans-3-[(3-{4-[(3S)-3-methylmorpholin-4-yl]-1-benzofuran-2-yl}imidazo[1,2-b]pyridazin-6-yl)oxy]cyclobutanamine] | 43.2 nM | 26.7 nM
25 | CC1(C)CN(c2cccc3oc(-c4cnc5ccc(OC[C@@H]6CCC(=O)N6)nn45)cc23)CCN1 [II-36, (5S)-5-[({3-[4-(3,3-dimethylpiperazin-1-yl)-1-benzofuran-2-yl]imidazo[1,2-b]pyridazin-6-yl}oxy)methyl]pyrrolidin-2-one] | 1 nM | 2.3 nM
26 | COc1ccc2ncc(-c3cc4c(N5CCN[C@H](C)C5)cccc4o3)n2n1 [II-39, 6-methoxy-3-{4-[(3R)-3-methylpiperazin-1-yl]-1-benzofuran-2-yl}imidazo[1,2-b]pyridazine] | 1.1 nM | 1.6 nM
27 | COc1ccc2ncc(-c3cc4c(N5CCNC[C@H]5C)cccc4o3)n2n1 [II-44, 6-methoxy-3-{4-[(2R)-2-methylpiperazin-1-yl]-1-benzofuran-2-yl}imidazo[1,2-b]pyridazine] | 3.8 nM | 2.9 nM
28 | C[C@@H]1CNCCN1c1cccc2oc(-c3cnc4ccc(OCCCS(C)(=O)=O)nn34)cc12 [II-45, 3-{4-[(2R)-2-methylpiperazin-1-yl]-1-benzofuran-2-yl}-6-[3-(methylsulfonyl)pro-poxy]imidazo[1,2-b]pyri-dazine] | 5.9 nM | 5.7 nM
29 | COC[C@H]1CCCN1c1cccc2oc(-c3cnc4ccc(OC[C@H]5CNCC(=O)N5)nn34)cc12 [II-48, (6R)-6-{[(3-{4-[(2R)-2-(methoxymethyl)pyrrolidin-1-yl]-1-benzofuran-2-yl}imidazo[1,2-b]pyridazin-6-yl)oxy]methyl}piperazin-2-one] | 3.9 nM | 7 nM
30 | C[C@@H]1COCCN1c1cccc2oc(-c3cnc4ccc(OC[C@H]5CCC(=O)N5)nn34)cc12 [II-49, (5R)-5-{[(3-{4-[(3R)-3-methylmorpholin-4-yl]-1-benzofuran-2-yl}imidazo[1,2-b]pyridazin-6-yl)oxy]methyl}pyrrolidin-2-one] | 11.9 nM | 5.2 nM
31 | C[C@@H]1COCCN1c1cccc2oc(-c3cnc4ccc(O[C@H]5C[C@H](N)C5)nn34)cc12 [II-50, trans-3-[(3-{4-[(3R)-3-methylmorpholin-4-yl]-1-benzofuran-2-yl}imidazo[1,2-b]pyridazin-6-yl)oxy]cyclobutanamine] | 50.6 nM | 39.1 nM
